# Assay results from patent US8088930B2, “Benzimidazole derivatives” (Hoffmann-La Roche Inc., priority 2008, dated 2012).
# pIC50: −log10 of the molar value.
# Molecular target: T1, FXR ligand binding domain (GST-FXR LBD fusion protein, human FXR aa 193-473) (Homo sapiens, UniProt Q96RI1)
# T1 construct: fused on or other part: Glutathione-S-transferase (GST) fused N-terminally to the FXR LBD, used to capture the protein on glutathione SPA beads
# T1 sequence (Q96RI1 211-486 limits assumed): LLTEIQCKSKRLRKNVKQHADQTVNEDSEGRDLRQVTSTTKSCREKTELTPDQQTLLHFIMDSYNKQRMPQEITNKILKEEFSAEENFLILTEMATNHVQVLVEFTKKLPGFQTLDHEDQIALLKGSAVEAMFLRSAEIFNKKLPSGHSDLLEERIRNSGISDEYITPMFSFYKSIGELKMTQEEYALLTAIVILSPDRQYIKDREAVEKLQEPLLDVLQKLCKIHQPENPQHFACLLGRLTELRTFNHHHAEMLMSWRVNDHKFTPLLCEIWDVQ
# Assay: Radioligand binding assay (scintillation proximity, radioligand displacement)
# Details: 40 nM GST-FXR LBD on SPA beads, test compound 6×10^−9 M to 2.5×10^−5 M, read-out: h-IC50 Binding
# Protocol: The following tests were carried out in order to determine the activity of the compounds of formula (I).
# To accomplish this, the portions of the sequences encoding the FXR LBD were amplified by polymerase chain reaction (PCR) from a full-length clone by PCR and then subcloned into the plasmid vectors. The final clone was verified by DNA sequence analysis.
# The induction, expression, and subsequent purification of GST-LBD fusion protein was performed in E. coli strain BL21(pLysS) cells by standard methods (Current Protocols in Molecular Biology, Wiley Press, ed. Ausubel et al.).
# Radioligand Binding Assay
# Binding of test substances to the FXR ligand binding domain was assessed in a radioligand displacement assay. The assay was performed in a buffer consisting of 50 mM Hepes, pH 7.4, 10 mM NaCl, 5 mM MgCl2, 0.01% CHAPS. For each reaction well in a 96-well plate, 40 nM of GST-FXR LBD fusion protein was bound to 10 μg glutathione yttrium silicate SPA beads (Pharmacia Amersham) in a final volume of 50 μl by shaking. A radioligand (e.g., 20 nM of 2,N-dicyclohexyl-2-[2-(2,4 dimethoxy-phenyl)-benzoimidazol-1-yl]-acetamide) and test compounds were added, and scintillation proximity counting was performed. All binding assays were performed in 96-well plates and the amount of bound ligand was measured on a Packard TopCount using OptiPlates (Packard).
row,pIC50,SMILES
1,8.70,"CC(C)(Oc1c(F)cc(-c2nnn[nH]2)cc1F)C(C1CCCCC1)n1c(-c2ccc(Cl)cc2)nc2cc(F)c(F)cc21 (single isomer, unassigned) [Example 115, (+) or (−)-2-(4-Chloro-phenyl)-1-[1-cyclohexyl-2-[2,6-difluoro-4-(1H-tetrazol-5-yl)-phenoxy]-2-methyl-propyl]-5,6-difluoro-1H-benzoimidazole]"
2,5.21,"O=C(O)C1CCC(NCC(C2CCCCC2)n2c(-c3ccc(Cl)cc3)nc3cc(F)c(F)cc32)CC1 (single isomer, unassigned) [Example 137, (+) or (−)-4-{2-[2-(4-Chloro-phenyl)-5,6-difluoro-benzoimidazol-1-yl]-(2-cis-cyclohexyl-ethylamino}-cyclohexanecarboxylic acid]"
3,6.52,"O=C(O)C1CCC(NCC(C2CCCCC2)n2c(-c3ccc(Cl)cc3)nc3cc(F)c(F)cc32)CC1 (single isomer, unassigned) [Example 138, (+) or (−)-4-{2-[2-(4-Chloro-phenyl)-5,6-difluoro-benzoimidazol-1-yl]-(2-trans-cyclohexyl-ethylamino}-cyclohexanecarboxylic acid]"
4,7.00,"Cc1cc(C(=O)O)ccc1OCC(C1CCCCC1)n1c(-c2ccc(Cl)cc2)nc2cc(F)c(F)cc21 (single isomer, unassigned; (+)) [Example 13, (+)-4-{2-[2-(4-Chloro-phenyl)-5,6-difluoro-benzoimidazol-1-yl]-2-cyclohexyl-ethoxy}-3-methyl-benzoic acid]"
5,7.52,"O=C(O)c1ccc(OCC(C2CCCCC2)n2c(-c3ccc(Cl)cc3)nc3cc(F)c(F)cc32)nc1 (single isomer, unassigned; (+)) [Example 20, (+)-6-{2-[2-(4-Chloro-phenyl)-5,6-difluoro-benzoimidazol-1-yl]-2-cyclohexyl-ethoxy}-nicotinic acid]"
6,7.70,"O=C(O)c1cnc(OCC(C2CCCCC2)n2c(-c3ccc(Cl)cc3)nc3cc(F)c(F)cc32)c(Cl)c1 (single isomer, unassigned; (+)) [Example 23, (+)-5-Chloro-6-{2-[2-(4-chloro-phenyl)-5,6-difluoro-benzoimidazol-1-yl]-2-cyclohexyl-ethoxy}-nicotinic acid]"
7,6.52,"O=C(O)c1cnc(OCC(C2CCCCC2)n2c(-c3ccc(Cl)cc3)nc3cc(F)c(F)cc32)c2ccsc12 (single isomer, unassigned; (+)) [Example 27, (+)-4-{2-[2-(4-Chloro-phenyl)-5,6-difluoro-benzoimidazol-1-yl]-2-cyclohexyl-ethoxy}-thieno[3,2-c]pyridine-7-carboxylic acid]"
8,7.00,"O=C(O)c1ccc(OCC(C2CCCCC2)n2c(-c3ccc(Cl)cc3)nc3cc(F)c(F)cc32)c(C(F)(F)F)c1 (single isomer, unassigned; (+)) [Example 40, (+)-4-{2-[2-(4-Chloro-phenyl)-5,6-difluoro-benzoimidazol-1-yl]-2-cyclohexyl-ethoxy}-3-trifluoromethyl-benzoic acid]"
9,6.15,"O=C(O)c1c(F)cc(OCC(C2CCCCC2)n2c(-c3ccc(Cl)cc3)nc3cc(F)c(F)cc32)cc1F (single isomer, unassigned; (+)) [Example 43, (+)-4-{2-[2-(4-Chloro-phenyl)-5,6-difluoro-benzoimidazol-1-yl]-2-cyclohexyl-ethoxy}-2,6-difluoro-benzoic acid]"
10,6.30,"CC(C)(Oc1ccc(OCC(C2CCCCC2)n2c(-c3ccc(Cl)cc3)nc3cc(F)c(F)cc32)nc1)C(=O)O (single isomer, unassigned; (+)) [Example 48, (+)-2-(6-{2-[2-(4-Chloro-phenyl)-5,6-difluoro-benzoimidazol-1-yl]-2-cyclohexyl-ethoxy}-pyridin-3-yloxy)-2-methyl-propionic acid]"
11,7.10,"O=C(O)C1(Oc2ccc(OCC(C3CCCCC3)n3c(-c4ccc(Cl)cc4)nc4cc(F)c(F)cc43)nc2)CC1 (single isomer, unassigned; (+)) [Example 52, (+)-1-(6-{2-[2-(4-Chloro-phenyl)-5,6-difluoro-benzoimidazol-1-yl]-2-cyclohexyl-ethoxy}-pyridin-3-yloxy)-cyclopropanecarboxylic acid]"
12,7.00,"Cc1cc(C(=O)O)cc(C)c1OCC(C1CCCCC1)n1c(-c2ccc(Cl)cc2)nc2cc(F)c(F)cc21 (single isomer, unassigned; (+)) [Example 54, (+)-4-{2-[2-(4-Chloro-phenyl)-5,6-difluoro-benzoimidazol-1-yl]-2-cyclohexyl-ethoxy}-3,5-dimethyl-benzoic acid]"
13,6.70,"Fc1cc2nc(-c3ccc(Cl)cc3)n(C(COc3ccc(-c4nnn[nH]4)cn3)C3CCCCC3)c2cc1F (single isomer, unassigned; (+)) [Example 62, (+)-2-(4-Chloro-phenyl)-1-{1-cyclohexyl-2-[5-(1H-tetrazol-5-yl)-pyridin-2-yloxy]-ethyl}-5,6-difluoro-1H-benzoimidazole]"
14,6.52,"O=C(O)c1ccc(COCC(C2CCCCC2)n2c(-c3ccc(Cl)cc3)nc3cc(F)c(F)cc32)c(F)c1 (single isomer, unassigned; (+)) [Example 64, (+)-4-{2-[2-(4-Chloro-phenyl)-5,6-difluoro-benzoimidazol-yl]-2-cyclohexyl-ethoxymethyl}-3-fluoro-benzoic]"
15,6.15,"O=C(O)c1ccc(COCC(C2CCCCC2)n2c(-c3ccc(Cl)cc3)nc3cc(F)c(F)cc32)cc1 (single isomer, unassigned; (+)) [Example 69, (+)-4-{2-[2-(4-Chloro-phenyl)-5,6-difluoro-benzoimidazol-1-yl]-2-cyclohexyl-ethoxymethyl}-benzoic acid]"
16,9.00,"Cc1cc(-c2nnn[nH]2)cc(C)c1OCC(C1CCCCC1)n1c(-c2ccc(Cl)cc2)nc2cc(F)c(F)cc21 (single isomer, unassigned; (+)) [Example 72, (+)-2-(4-Chloro-phenyl)-1-{1-cyclohexyl-2-[2,6-dimethyl-4-(1H-tetrazol-5-yl)-phenoxy]-ethyl}-5,6-difluoro-1H-benzoimidazole]"
17,6.30,"COc1ccc(-c2nc3cc(F)c(F)cc3n2C(COc2ccc(C(=O)O)cn2)C2CCCCC2)c(OC)n1 (single isomer, unassigned; (+)) [Example 74, (+)-6-{2-Cyclohexyl-2-[2-(2,6-dimethoxy-pyridin-3-yl)-5,6-difluoro-benzoimidazol-1-yl]-ethoxy}-nicotinic acid]"
18,7.52,"O=C(O)c1cc(F)c(OCC(C2CCCCC2)n2c(-c3ccc(Cl)cc3)nc3cc(F)c(F)cc32)c(Cl)c1 (single isomer, unassigned; (+)) [Example 78, (+)-3-Chloro-4-{2-[2-(4-chloro-phenyl)-5,6-difluoro-benzoimidazol-1-yl]-2-cyclohexyl-ethoxy}-5-fluoro-benzoic acid]"
19,7.30,"Fc1cc2nc(-c3ccc(Cl)cc3)n(C(COc3ccc(-c4nnn[nH]4)cc3F)C3CCCCC3)c2cc1F (single isomer, unassigned; (+)) [Example 80, (+)-2-(4-Chloro-phenyl)-1-{1-cyclohexyl-2-[2-fluoro-4-(1H-tetrazol-5-yl)-phenoxy]-ethyl}-5,6-difluoro-1H-benzoimidazole]"
20,9.70,"COc1ccc(-c2nc3cc(F)c(F)cc3n2C(COc2c(C)cc(C(=O)O)cc2C)C2CCCCC2)c(OC)n1 (single isomer, unassigned; (+)) [Example 83, (+)-4-{2-Cyclohexyl-2-[2-(2,6-dimethoxy-pyridin-3-yl)-5,6-difluoro-benzoimidazol-1-yl]-ethoxy}-3,5-dimethyl-benzoic acid]"
21,7.40,"O=C(O)c1cc(F)c(OCC(C2CCCCC2)n2c(-c3ccc(Cl)cc3)nc3cc(F)c(F)cc32)c(F)c1 (single isomer, unassigned; (+)) [Example 87, (+)-4-{2-[2-(4-Chloro-phenyl)-5,6-difluoro-benzoimidazol-1-yl]-2-cyclohexyl-ethoxy}-3,5-difluoro-benzoic acid]"

row,SMILES,pIC50
1,"O=C(O)c1ccc(OCC(C2CCCCC2)n2c(-c3ccc(Cl)cc3)nc3cc(F)c(F)cc32)c(F)c1 (single isomer, unassigned; (+)) [Example 9, (+)-4-{2-[2-(4-Chloro-phenyl)-5,6-difluoro-benzoimidazol-1-yl]-2-cyclohexyl-ethoxy}-3-fluoro-benzoic acid]",7.00

# Same assay, conditions: h-IC50 Binding, 40 nM GST-FXR LBD on SPA beads, test compound 6×10^−9 M to 2.5×10^−5 M
row,SMILES,pIC50
1,"O=C(O)c1ccc(OCC(C2CCCCC2)n2c(-c3ccc(Cl)cc3)nc3cc(F)c(F)cc32)cc1 (single isomer, unassigned; (+)) [Example 5, (+)-4-{2-[2-(4-Chloro-phenyl)-5,6-difluoro-benzoimidazol-1-yl]-2-cyclohexyl-ethoxy}-benzoic acid]",7.40
